# Assays:
# MDA-MB-231 cells [1] = experiment: CyQUANT growth assay, continuous exposure; type: cell-based, human; conditions: various concentrations
# Procedure: To test the effect of Drp1 inhibition on tumor cells, MDA-MB-231 cells were plated in black 96-well plates and treated with various concentrations of mdivi-1. Cell numbers were measured by CyQUANT assay every day.
# H1299 cells = experiment: Mitochondrial function: ATP, OCR, ECAR, TMRM membrane potential; type: cell-based, human; conditions: 50 μM, 4 h
# Procedure: (§1) FIG. 25A-I. Mdivi-1 causes mitochondrial dysfunction and its combination with cisplatin induces mitochondrial swelling that triggers Bax/Bak-independent MOMP. (A) MDA-MB-231 cells and H1299 cells were treated as indicated for 4 h and subjected to ATP determination. […] (B, C) OCR and ECAR were measured after 4 h treatment of H1299 cells with agents alone or the combination (C/M). (D) H1299 cells were treated as indicated for 4 h. Mitochondrial membrane potential was determined with TMRM. (E) Bax/Bak double knockout MEF cells were treated with DMSO or the combination, with or without the presence of 10 μM FCCP for 2 h. Mitochondrial membrane potential was measured as in D. (F) Bax/Bak double knockout MEF cells were treated as indicated for 2 h, ROS generation was determined with DCF-DA. (G) Bax/Bak double knockout MEF cells were pre-incubated with 5 μM MitoSox for 30 min, and then treated as indicated for 2 h followed by flow cytometry. […] Mitochondrial morphology was analyzed by confocal microscopy. […] Mitochondrial ultrastructure was analyzed by electron microscopy. […]
# Total cellular ATP content was determined using a luminescent ATP detection kit, ATPlite (PerkinElmer Life Sciences, Boston, Mass.), according to the manufacturer's instruction. The luminescence intensity was measured using a microplate reader, Synergy 2 (BioTek instruments, Winooski, Vt.). […]
# [2] = Solubility of mdivi-1 with carrier compounds; type: physicochemical; conditions: 1 mM mdivi-1
# MDA-MB-231 cells [3] = experiment: Chromosome and mitotic spindle morphology in mitotic cells; type: cell-based, human; conditions: 7 hours
# Procedure: The effect of Drp1 inhibition of chromosome stability was then evaluated. MDA-MB-231 cells that have been engineered to stably express a mitochondrial marker protein pAcGFP-1-mito were treated with mdivi-1 for 7 hours. Mitotic cells were selected for examining the morphology of their chromosomes and mitotic spindles. Chromosomes were visualized by DAPI, and mitotic spindles were visualized by staining cells with Alex-Fluor 555-conjugated anti-β tubulin antibody. The results are shown in FIG. 11; two representative mitotic figures are shown.
# [4] = system: Bax/Bak WT and double knockout (DKO) SV40-transformed MEF cells; experiment: Apoptosis, ROS and mitochondrial morphology in Bax/Bak MEF cells; type: cell-based, mouse; conditions: cisplatin alone 20 h in DKO cells; combination within 8 h
# Procedure: FIG. 24A-E. The combination of cisplatin and mdivi-1 enhances MOMP bypassing Bax/Bak-dependent mechanism. (A) Bax/Bak wild-type (Bax/Bak+/+) and double knockout (Bax/Bak−/−) SV40-transformed MEF cells were treated with cisplatin at indicated concentrations for 20 h. The cleavage of caspase-9 and -3 were detected by western blot. (B, C) Cleavage of caspase-9 and -3 in Bax/Bak wild-type and double knockout MEF cells after combination treatment. (D) Quantification of apoptotic cells by Annexin V and PI after 8 h treatment of combination at 50 μM. (E) Release of cytochrome c from Bax/Bak wild-type and double knockout MEF cells after combination treatment.
# as §1, with “(D) H1299 cells were treated as indicated for 4 h.” left out, “(E) Bax/Bak double knockout MEF cells were treated with DMSO or the combination, with or without the presence of 10 μM FCCP for 2 h.” left out, “DCF-DA.” for “DCF-DA. (G) Bax/Bak double knockout MEF cells were pre-incubated with 5 μM MitoSox for 30 min, and then treated as indicated for 2 h followed by flow cytometry.”
Compound,growth of cells (MDA-MB-231 cells [1]),extracellular acidification rate (ECAR) (H1299 cells),oxygen consumption rate (OCR) / mitochondrial respiration (H1299 cells),solubility of mdivi-1 ([2]; 40% 2-Hydroxypropyl-β-cyclodextrin/PBS),"solubility of mdivi-1 ([2]; human serum albumin as vehicle, 15% HSA in 0.85% sodium chloride)",chromosome stability during mitosis (MDA-MB-231 cells [3]),cleavage of caspase-9 and -3 [4]
COc1cc(-n2c(=S)[nH]c3ccccc3c2=O)c(Cl)cc1Cl [mdivi-1],inhibited the growth of MDA-MB-231 breast cancer cells in a dose-dependent manner,enhanced the extracellular acidification rate,suppressed mitochondrial respiration,improve the solubility,improve the solubility,chromosomal instability,–
N.N.[Cl][Pt][Cl] [cisplatin],–,–,–,–,–,–,absence of cleavage of caspase-9 and -3
